Measurements published in US20260256792A1, “TREATMENT OF CHRONIC SPONTANEOUS URTICARIA BY ADMINISTERING (R)-2-[3-[4-AMINO-3-(2-FLUORO-4-PHENOXY-PHENYL)PYRAZOLO[3,4-D]PYRIMIDIN-1-YL]PIPERIDINE-1-CARBONYL]-4-METHYL-4-[4-(OXETAN-3-YL)PIPERAZIN-1-YL]PENT-2-ENENITRILE” (priority 2023, published 2026).

Test system: moderate-to-severe chronic spontaneous urticaria (CSU)
Experiment: Phase 2 CSU study: hives severity score over 7 days (HSS7)
Format: in vivo, human
Design: key to HSS7 Change from baseline, Median / HSS7, Median / HSS7, Max / HSS7 Change from baseline, Q1 / HSS7 Change from baseline, Q3 / HSS7 Change from baseline, Max: 7-day sum of daily hive scores, each 0 = none to 3 = >50 hives
From the text: The study comprises a 12 week, randomized, double-blind, placebo-controlled, multi-center, dose-ranging efficacy and safety phase, followed by a 40 week open label extension (OLE) phase (see FIG. 1).
The study consists of three phases and an optional OLE phase.
The UAS is a validated PRO measure. The daily UAS is the sum of the daily Hive Severity Score (HSS, ranging from 0=None to 3=more than 50 hives) and the daily Itch Severity Score (ISS, ranging from 0=None to 3=intense), the 2 key urticaria signs and symptoms which are wheals and itch. The daily UAS scores range from 0 to 6 point/day. Daily UAS scores are summed over 7-day period to create the UAS7, ranging from 0 to 42, and are composed of the HSS7 and ISS7 components. […] Patients were to complete the UAS using the e-diary. The e-diary was to be used once daily on the same time of each day recording of participant's answers to the urticaria activity score over 7 days (UAS7) questionnaire. For participants who entered the OLE phase, their answers to the UAS7 questionnaire were also to be collected from Week 20 to Week24 and from Week 48 to Week 52.
The following secondary endpoints were to be analyzed using the same approach as for the primary endpoint: • Change from baseline in UAS7 at Week 4 • Change from baseline in UAS7 at Week 12 (for US and US reference countries) • Change from baseline in ISS7 at Week 12 (except US and US reference countries) • Change from baseline in HSS7 at Week 12

[1] = Week 4, 400 mg BID, Omalizumab-Naïve Population
[2] = Week 4, 400 mg BID, Patients with Prior Omalizumab Use
[3] = Week 4, 400 mg QPM, Omalizumab-Naïve Population
[4] = Week 4, 400 mg QPM, Patients with Prior Omalizumab Use
[5] = Week 4, 400 mg TID, Omalizumab-Naïve Population
[6] = Week 4, 400 mg TID, Patients with Prior Omalizumab Use
[7] = Week 5, 400 mg BID, Omalizumab-Naïve Population
[8] = Week 5, 400 mg BID, Patients with Prior Omalizumab Use
[9] = Week 5, 400 mg QPM, Omalizumab-Naïve Population
[10] = Week 5, 400 mg QPM, Patients with Prior Omalizumab Use
[11] = Week 5, 400 mg TID, Omalizumab-Naïve Population
[12] = Week 5, 400 mg TID, Patients with Prior Omalizumab Use
[13] = Week 6, 400 mg BID, Omalizumab-Naïve Population
[14] = Week 6, 400 mg BID, Patients with Prior Omalizumab Use
[15] = Week 6, 400 mg QPM, Omalizumab-Naïve Population
[16] = Week 6, 400 mg QPM, Patients with Prior Omalizumab Use
[17] = Week 6, 400 mg TID, Omalizumab-Naïve Population
[18] = Week 6, 400 mg TID, Patients with Prior Omalizumab Use

SMILES: CC(C)(C=C(C#N)C(=O)N1CCC[C@@H](n2nc(-c3ccc(Oc4ccccc4)cc3F)c3c(N)ncnc32)C1)N1CCN(C2COC2)CC1 [rilzabrutinib, (R)-2-[3-[4-amino-3-(2-fluoro-4-phenoxy-phenyl)pyrazolo[3,4-d]pyrimidin-1-yl]piperidine-1-carbonyl]-4-methyl-4-[4-(oxetan-3-yl)piperazin-1-yl]pent-2-enenitrile]
- HSS7, Mean (SD) [1]: 7.60 (6.00)
- HSS7, Median [1]: 7.00
- HSS7 Change from baseline, Mean (SD) [1]: −6.54 (5.34)
- HSS7 Change from baseline, Median [1]: −6.00
- HSS7 Percent change from baseline, Mean (SD) [1]: −47.44 (37.17) %
- HSS7 Percent change from baseline, Median [1]: −42.86%
- HSS7, Mean (SD) [2]: 6.80 (8.04)
- HSS7, Median [2]: 2.00
- HSS7 Change from baseline, Mean (SD) [2]: −10.00 (8.34)
- HSS7 Change from baseline, Median [2]: −12.00
- HSS7 Percent change from baseline, Mean (SD) [2]: −60.22 (47.52) %
- HSS7 Percent change from baseline, Median [2]: −88.24%
- HSS7 Change from baseline, Mean (SD) [3]: −4.20 (4.74)
- HSS7 Change from baseline, Median [3]: −3.00
- HSS7 Percent change from baseline, Mean (SD) [3]: −26.30 (29.41) %
- HSS7 Percent change from baseline, Median [3]: −16.67%
- HSS7, Mean (SD) [4]: 10.00 (NC)
- HSS7 Change from baseline, Mean (SD) [4]: −10.00 (NC)
- HSS7 Change from baseline, Median [4]: −10.00
- HSS7 Percent change from baseline, Mean (SD) [4]: −50.00 (NC) %
- HSS7 Percent change from baseline, Median [4]: −50.00%
- HSS7, Mean (SD) [5]: 6.85 (4.96)
- HSS7, Median [5]: 6.50
- HSS7 Change from baseline, Mean (SD) [5]: −7.21 (5.24)
- HSS7 Change from baseline, Median [5]: −6.58
- HSS7 Percent change from baseline, Mean (SD) [5]: −50.43 (33.03) %
- HSS7 Percent change from baseline, Median [5]: −50.69%
- HSS7, Mean (SD) [6]: 3.92 (4.26)
- HSS7, Median [6]: 3.17
- HSS7 Change from baseline, Mean (SD) [6]: −12.11 (6.81)
- HSS7 Change from baseline, Median [6]: −12.42
- HSS7 Percent change from baseline, Mean (SD) [6]: −73.06 (22.97) %
- HSS7 Percent change from baseline, Median [6]: −76.19%
- HSS7, Mean (SD) [7]: 8.34 (6.75)
- HSS7, Median [7]: 7.00
- HSS7 Change from baseline, Mean (SD) [7]: −6.01 (5.82)
- HSS7 Change from baseline, Median [7]: −7.00
- HSS7 Percent change from baseline, Mean (SD) [7]: −43.27 (41.28) %
- HSS7 Percent change from baseline, Median [7]: −42.86%
- HSS7, Mean (SD) [8]: 4.25 (8.50)
- HSS7, Median [8]: 0.00
- HSS7 Change from baseline, Median [8]: −14.50
- HSS7 Percent change from baseline, Mean (SD) [8]: −75.00 (50.00) %
- HSS7 Percent change from baseline, Median [8]: −100.00%
- HSS7, Mean (SD) [9]: 9.63 (5.13)
- HSS7, Median [9]: 8.20
- HSS7 Change from baseline, Mean (SD) [9]: −5.12 (5.22)
- HSS7 Change from baseline, Median [9]: −3.50
- HSS7 Percent change from baseline, Mean (SD) [9]: −32.44 (31.06) %
- HSS7 Percent change from baseline, Median [9]: −26.11%
- HSS7, Mean (SD) [10]: 8.00 (NC)
- HSS7, Median [10]: 8.00
- HSS7 Change from baseline, Mean (SD) [10]: −12.00 (NC)
- HSS7 Change from baseline, Median [10]: −12.00
- HSS7 Percent change from baseline, Mean (SD) [10]: −60.00 (NC) %
- HSS7 Percent change from baseline, Median [10]: −60.00%
- HSS7, Mean (SD) [11]: 6.49 (5.14)
- HSS7, Median [11]: 6.00
- HSS7 Change from baseline, Mean (SD) [11]: −7.57 (5.71)
- HSS7 Change from baseline, Median [11]: −7.00
- HSS7 Percent change from baseline, Mean (SD) [11]: −52.28 (34.93) %
- HSS7 Percent change from baseline, Median [11]: −50.00%
- HSS7, Mean (SD) [12]: 3.42 (4.45)
- HSS7, Median [12]: 2.50
- HSS7 Change from baseline, Mean (SD) [12]: −12.61 (7.49)
- HSS7 Change from baseline, Median [12]: −12.00
- HSS7 Percent change from baseline, Mean (SD) [12]: −75.12 (24.22) %
- HSS7 Percent change from baseline, Median [12]: −75.37%
- HSS7, Mean (SD) [13]: 8.17 (6.62)
- HSS7, Median [13]: 7.00
- HSS7 Change from baseline, Mean (SD) [13]: −6.17 (6.01)
- HSS7 Change from baseline, Median [13]: −6.42
- HSS7 Percent change from baseline, Mean (SD) [13]: −43.56 (44.25) %
- HSS7 Percent change from baseline, Median [13]: −47.73%
- HSS7, Mean (SD) [14]: 5.97 (7.25)
- HSS7, Median [14]: 3.50
- HSS7 Change from baseline, Mean (SD) [14]: −8.83 (9.41)
- HSS7 Change from baseline, Median [14]: −12.00
- HSS7 Percent change from baseline, Mean (SD) [14]: −50.00 (62.36) %
- HSS7 Percent change from baseline, Median [14]: −83.33%
- HSS7, Mean (SD) [15]: 9.94 (5.76)
- HSS7, Median [15]: 8.28
- HSS7 Change from baseline, Mean (SD) [15]: −5.20 (5.64)
- HSS7 Change from baseline, Median [15]: −4.50
- HSS7 Percent change from baseline, Mean (SD) [15]: −33.60 (35.00) %
- HSS7 Percent change from baseline, Median [15]: −37.09%
- HSS7, Mean (SD) [16]: 8.00 (NC)
- HSS7, Median [16]: 8.00
- HSS7 Change from baseline, Mean (SD) [16]: −12.00 (NC)
- HSS7 Change from baseline, Median [16]: −12.00
- HSS7 Percent change from baseline, Mean (SD) [16]: −60.00 (NC) %
- HSS7 Percent change from baseline, Median [16]: −60.00%
- HSS7, Mean (SD) [17]: 6.78 (5.55)
- HSS7, Median [17]: 6.00
- HSS7 Change from baseline, Mean (SD) [17]: −7.22 (6.24)
- HSS7 Change from baseline, Median [17]: −7.00
- HSS7 Percent change from baseline, Mean (SD) [17]: −49.49 (37.97) %
- HSS7 Percent change from baseline, Median [17]: −46.15%
- HSS7, Mean (SD) [18]: 2.83 (4.62)
- HSS7, Median [18]: 1.00
- HSS7 Change from baseline, Mean (SD) [18]: −13.19 (6.97)
- HSS7 Change from baseline, Median [18]: −13.00
- HSS7 Percent change from baseline, Mean (SD) [18]: −81.39 (23.52) %
- HSS7 Percent change from baseline, Median [18]: −91.50%
